# Measured values: patent US12064759B2, “Microfluidic device with embedded cell culture chambers for high throughput biological assays” (NUtech Ventures, priority 2020, dated 2024)
# Counter-ions that a name gives are not always drawn.
# Experiments:
# A431 cells [1] = test: Drug screening with live/dead assay on A431 cells in the MECT microfluidic device; format: cell-based
# Protocol: Taking advantage of the ability of the MECT device in generating uniform gradient within each chamber, a drug screening study with A431 cells administrated with control media and Dox was performed. Five conditions were studied: (1) Cells were stained with live/dead assay 24 hours after seeding without any media flow. This serves as the control; (2) cells were perfused by DMEM from both inlets for 12 hours before live/dead staining. This experiment examined the effect of shear stress on cell viability; (3, 4, 5) cells were perfused for 12 hours with DMEM/Dox (at a concentration of 30 μg/ml) from the bottom inlet and DMEM from the top inlet at flow rates of 0.05 μl/min (3), 0.1 μl/min (4) and 0.2 μl/min (5) for both inlets. Representative images for the studies of condition 1, 2, 4 and 5 are shown in FIGS. 6a-6d and of condition 3 in FIG. 7a. These studies were performed after the cells had been seeded within the microchambers for 24 hours. […] This provided clear evidence that cells within each chamber were viable and the device works properly. The effect of shear stress was then examined by perfusion of both inlets with a control media, Dulbecco's Modified Eagle Medium (DMEM) at a flow rate of 0.1 μl/min. Overall a slightly lower cell viability, at an average of 88%, was observed due to the shear induced cell death (FIG. 6b). In addition, the cell viability increased from the columns closest to the inlet of the device to the columns closes to the outlets, in agreement with COMSOL simulation where the shear stress is higher in the columns close to the inlets (FIG. 5).
# As discussed in microchannel fabrication, PDMS with ratio 1:10 were used to fabricate the microchannel and it was bonded to glass-slides and cured for 30 min at 80° C. inside the oven. Human fibronectin protein (Thermofisher) with the concentration of 50 μg/ml was used to coat the surface of the glass-slide as the bottom layer of the microchannels. Fibronectin was flowed into the microchannels by syringes and incubated for 2 hours. The fibronectin coated microchannel was washed with PBS. A mixture of the cell and DMEM was flowed into the microchannel by syringe pump at a flow rate (30 μl/min). The concentration of cell mixture was about 10 million cells per ml of media. Cell attachment and proliferation inside the microchannel was reached by placing the microchannel inside the incubator for 24 hours.
# Doxorubicin hydrochloride 98.0-102.0% (HPLC) with molecular weight of 579.98 was dissolved in water and was diluted in DMEM media. […] Cells were then counted with ImageJ cell counter module. Viability of the cells was calculated as the ratio of the live cells (stained green) over the total number of the cell, summation of the live (green) and dead (red) cells within each chamber.
# A431 cells [2] = test: Multi-well (static culture) Dox study on A431 cells, live/dead assay; format: cell-based; conditions: Dox 0, 6, 12, 18, 24 and 30 μg/ml; device flow rate 0.05 μl/min
# Protocol: Viability data with DMEM/Dox at the inlets at a flow rate of 0.05 μl/ml was compared with Dox treatment of A431 cells in static culture. A lower flow rate was chosen to minimize the effect of the shear stress on cell detachment and cell death. […] Cell viabilities data was collected by counting cells stained green and red from these chambers. According to simulation data, the concentration of Dox in the chambers 13 through 18 are: 0 μg/ml, 6 μg/ml, 12 μg/ml, 18 μg/ml, 24 μg/ml and 30 μg/ml. These dosages were applied in static culture and the viability data were collected. […] Doxorubicin hydrochloride 98.0-102.0% (HPLC) with molecular weight of 579.98 was dissolved in water and was diluted in DMEM media. For A431 cells, live-dead staining kit was diluted with PBS and was continuously flowed into the chambers with cells for 2 hours. Live-dead kit contains, Calcein-AM which stains green to the cytoskeleton of live cells and ethidium homodimer which stains red to the nuclei of dead cells. Cells were then counted with ImageJ cell counter module. Viability of the cells was calculated as the ratio of the live cells (stained green) over the total number of the cell, summation of the live (green) and dead (red) cells within each chamber.
compound,measurement,setting,value
"COc1cccc2c1C(=O)c1c(O)c3c(c(O)c1C2=O)C[C@@](O)(C(=O)CO)C[C@@H]3O[C@H]1C[C@H](N)[C@H](O)[C@H](C)O1 [Dox, Doxorubicin hydrochloride]",overall cell viability in condition 5 (0.2 μl/min DMEM/Dox) versus condition 4 (0.1 μl/min DMEM/Dox),"A431 cells [1]; 12 h, Dox 30 μg/ml, higher shear stress at higher flow rate",clearly lower
same,cell viability from chambers #13 to #18,"A431 cells [1]; 12 h DMEM/Dox 30 μg/ml, flow rates 0.05, 0.1 and 0.2 μl/min (conditions 3 through 5)",overall decline
same,cell viability from top chamber to bottom chamber of each column (lowest to highest Dox concentration),"A431 cells [1]; 12 h perfusion, DMEM top inlet, DMEM/Dox 30 μg/ml bottom inlet, flow rates 0.1 and 0.2 μl/min",decreased significantly
same,effect of increasing doxorubicin concentrations within chambers on skin cancer cells,A431 cells [1]; doxorubicin flowed into chambers at different flow rate,induces cell death
same,cell viability in static culture compared with device chambers #13 through #18,A431 cells [2],reasonable agreement
